Source: patent publication US20130055471A1, “Transgenic Ozone-Resistant Plants” (priority 2009, published 2013)
Entries after “also recorded” stand apart in the source; their conditions may differ.

Columns and labels:
Cotton [1] = test: Total dark respiration and SHAM-sensitive AOX by phase shift fluorescence, cotton leaf sections; assay type: in vivo, Gossypium spp.; conditions: for increase of AOX respiration compared to the initial AOX respiration rate: ontogenic phase in 0 ppbv ozone ambient
Source text: All plantings were done at day 0. shifting plants to new ozone background for all plants=day 70. […] 60 ppb plants after 8 days (=day 78) in 0 ppb still act as if in 60 ppb. Sugar Cane: plants from 0 ppb, after having their first 70 days of development in 0 ppb, stayed for the nex 33 days (till day 103) in 60 ppb before being placed back in their original 0 ppb.
Ozone generators (model OP-35-3P, Grupo Interozone, Brazil) were coupled to ozone monitors (model 202, 2B Technologies, Inc. USA; dynamic range of 1.5 ppbv to 100 ppmv of ozone; precision 1.5 ppbv or 2% of the reading) using a ozone monitor—generator interface (Engineering dep. Crops Advance Brazil). […] This was used as the upper limit for phytotron number one. Phytotron number two was set at 30 ppbv average ozone. Phytotron number three was set at 60 ppbv average ozone. Ozone levels of phytotron number two and three were permanently measured at 10 second intervals and averaged per minute. Each ozone monitor fed averaged values over an analog output to an ozone monitor—ozone generator interface. Hysteresis was set at +/−5 ppbv. Ozone levels were monitored close to the inlet of the two internal circulation ventilators. The ozone generators were adapted to accept an external digital signal from the interface.
Respiration of plant material was tested as follows: Partial oxygen pressure drops due to oxygen consumption as result of dark respiration were measured using phase shift fluorescence measurement. For this, a NeoFox™ Phase Measurement System was used (Fluorometer Bench version using a QBIF600-VIS-NIR laboratory-grade bifurcated optical fiber with FOXY-R-8 cm overcoated fluorescence oxygen needle sensor, Ocean Optics Inc. USA).
Fluorescence phase shift was expressed as Tau in microseconds (μs) and has an inverse and linear relation with the partial oxygen pressure.
Salicylhydroxamic acid (SHAM) (99%, Sigma-Aldrich Brasil Ltda. Sao Paulo, Brazil) was used as an AOX inhibitor. The soluble sodium salicylhydroxamate salt was prepared by titrating SHAM with 0.1 M sodium hydroxide until neural pH. A stock solution ([…]) was prepared containing 300 ml/L ethanol from initial dissolving SHAM (same abbreviation is used for the salicylhydroxamate salt). From the stock solution a 20 mmol/L salicylhydroxamate final test solution was prepared by taking 12.3 ml stock solution and completing till 100 ml with a phosphate buffer solution (pH 7). The final SHAM test solution thus contained 3.7% residual ethanol. For proper control, the comparative test solution was also provided with 3.7 ml of ethanol per 100 ml of phosphate buffer solution (pH 7). To both solutions two drops of wetting agent (Silwet L-77 AG, GE Silicones Inc. USA) were added per 25 ml of test solution.
Plant material collected was always the first fully grown leaf counting from the apical point downwards or outwards (e.g. for monocotyls). […] Per test, four leafs from four different plants were sampled. Cotton leafs were cut in half along the mid nerve. Using a clipper, 16 leaf sections of equal surface area of 400.9 mm2 each were cut, one from each base half and one from each top half part giving 4 sections per leaf and 16 sections per test. The leaf sections were distributed equally over two sub samples, one with and one without salicylhydroxamate. Using a chirurgical blade, all sections were given 7 parallel cuts (through and through) at approximately 2.5 mm apart over almost the full length of the section to guarantee lateral infiltration of the test solutions and gas exchange.
Within 10 minutes of plant sampling the sections were cut, initial subsample weight was registered using a high precision laboratory scale and the subsamples were placed in their solutions with and without salicylhydroxamate for 60 minutes in the dark, to guarantee dark adaptation.
Each sample contained 4 leaves, 4 sections per leaf providing 16 sections, 8 per subsample. […]

Cotton [2] = test: Full leaf Cotton Total Dark Respiration (TDR) measurements; assay type: in vivo, Gossypium spp.
Source text: (§1) Ozone generators (model OP-35-3P, Grupo Interozone, Brazil) were coupled to ozone monitors (model 202, 2B Technologies, Inc. […] Crops Advance Brazil). […] This was used as the upper limit for phytotron number one. […] Ozone levels of phytotron number two and three were permanently measured at 10 second intervals and averaged per minute. Each ozone monitor fed averaged values over an analog output to an ozone monitor-ozone generator interface. Hysteresis was set at +/-5 ppbv. Ozone levels were monitored close to the inlet of the two internal circulation ventilators. The ozone generators were adapted to accept an external digital signal from the interface. Respiration of plant material was tested as follows: Partial oxygen pressure drops due to oxygen consumption as result of dark respiration were measured using phase shift fluorescence measurement. For this, a NeoFoxTM Phase Measurement System was used (Fluorometer Bench version using a […] laboratory-grade bifurcated optical fiber with FOXY-R-8 cm overcoated fluorescence oxygen needle sensor, Ocean Optics Inc. USA). Fluorescence phase shift was expressed as Tau in microseconds (μs) and has an inverse and linear relation with the partial oxygen pressure. […] In addition, full leaf Total Dark Respiration (TDR) measurements without the use of any pre-treatment solution (no SHAM and pretreatment control) were executed for cotton, corn and rice. Data (tables 2, 3 and 4) show clear positive correlation between a) total respiration per unit of fresh weight and ozone level, and b) total respiration per unit of dry weight and ozone level.

Rice = test: Full leaf Rice Total Dark Respiration (TDR) measurements; assay type: in vivo, Oryza sativa L.
Source text: as §1

Corn = test: Full leaf Corn Total Dark Respiration (TDR) measurements; assay type: in vivo, Zea mays L.
Source text: as §1

Sugarcane plants = test: AOX and total dark respiration in sugarcane exposed to various levels of ozone; assay type: in vivo, Saccharum spp.; conditions: for relative AOX, integration of the parabolic function yields / absolute AOX, integration of the parabolic function yields: 60 ppbv
Source text: For sugarcane 4 plantlets per pot were provided and these plantlets were transplanted from the agar following washing of their root system with nutrient solution (see below) in order to remove residual agar. Every sugar cane pot was provided with a dome consisting of a 5 litre water flask (PP) of which the bottom was removed creating a 30 cm high dome. Crepe-tape was used to provide an air-tight connection between the bottom rim of the flask and the planting pot. The 40 mm screw cap on top functioned as a ventilation valve, initially maintaining near 100% RV to prevent the plantlets from drying out. Directly after transplanting, the sugar cane plantlets were placed in a phytotron (4 pots per phytotron) more in particular in acrylic cabinets created therein (see below). The sugar cane domes were removed 10 days after transplanting. All plantings were done at day 0. shifting plants to new ozone background for all plants=day 70. […] 60 ppb plants after 8 days (=day 78) in 0 ppb still act as if in 60 ppb. Sugar Cane: plants from 0 ppb, after having their first 70 days of development in 0 ppb, stayed for the nex 33 days (till day 103) in 60 ppb before being placed back in their original 0 ppb. […] Sugarcane plants were grown in the same manner as described above in Example 2. The AOX and total dark respiration were measured for plants exposed to various levels of ozone as described above in Example 2.

[3] = 0 →30 ppbv ozone: plants grown in 0 ppvb O3 and transferred to 30 ppvb O3
[4] = 0 →60 ppbv ozone: plants grown in 0 ppvb O3 and transferred to 60 ppvb O3 (day 70, 7 days)
[5] = 0 →60 →0 ppbv ozone: grown in 0 ppvb O3, transferred to 60 ppvb O3 and transferred back to 0 ppvb O3
[6] = 60 →0 ppbv ozone: plants grown in 60 ppvb O3 and transferred to 0 ppvb O3 (day 70, 8 days)
[7] = ozone concentration during growth 30 ppbv
[8] = ozone concentration during growth 60 ppbv

## O=[O+][O-] [ozone]
Cotton [1]; [3]
  AOX component (arb units): 3.26 arb units
  AOX/TDR: 30.3%
  AOX/TDR relative to initial equilibrium: 116.5%
  TDR excl AOX dTau/t (μs/s) without SHAM: 7.51E−06 μs/s
  TDR incl AOX dTau/t (μs/s) with SHAM: 1.08E−05 μs/s
Cotton [1]; [4]
  AOX component (arb units): 3.77 arb units
  AOX/TDR: 39.6%
  AOX/TDR relative to initial equilibrium: 152.5%
  TDR excl AOX dTau/t (μs/s) without SHAM: 5.75E−06 μs/s
  TDR incl AOX dTau/t (μs/s) with SHAM: 9.52E−06 μs/s
Cotton [1]; [5]
  AOX component (arb units): 2.95 arb units
  AOX/TDR: 25.0%
  AOX/TDR relative to initial equilibrium: 96.2%
  TDR excl AOX dTau/t (μs/s) without SHAM: 8.87E−06 μs/s
  TDR incl AOX dTau/t (μs/s) with SHAM: 1.18E−05 μs/s
Cotton [1]; [6]
  AOX component (arb units): 3.97 arb units
  AOX/TDR: 35.8%
  AOX/TDR relative to initial equilibrium: 100.5%
  TDR excl AOX dTau/t (μs/s) without SHAM: 7.13E−06 μs/s
  TDR incl AOX dTau/t (μs/s) with SHAM: 1.11E−05 μs/s
Cotton [1]; placed in the 30 ppbv ozone ambient
  increase of AOX respiration compared to the initial AOX respiration rate: 16.5%
Cotton [1]; placed in the 60 ppbv ozone ambient
  increase of AOX respiration compared to the initial AOX respiration rate: 52.5%
Cotton [1]; ontogenic phase in 0 ppbv, passed time in the 60 ppbv ozone ambient
  AOX respiration after return to the 0 ppbv ozone ambient: returned fully to its initial level
Cotton [1]; plants grown in 30 ppvb O3
  AOX component (arb units): 2.97 arb units
  AOX/TDR: 29.9%
  TDR excl AOX dTau/t (μs/s) without SHAM: 6.96E−06 μs/s
  TDR incl AOX dTau/t (μs/s) with SHAM: 9.93E−06 μs/s
Cotton [1]; plants grown in 60 ppvb O3
  AOX component (arb units): 3.33 arb units
  AOX/TDR: 35.6%
  AOX/TDR relative to initial equilibrium: 100.0%
  TDR excl AOX dTau/t (μs/s) without SHAM: 6.03E−06 μs/s
  TDR incl AOX dTau/t (μs/s) with SHAM: 9.36E−06 μs/s
Cotton [1]; plants grown up in the 60 ppbv ozone level ambient
  AOX respiration during stay in the zero ozone level ambient: did not lower their AOX respiration
Cotton [2]; [7]
  Normalized dark respiration activity (dwt): 13.4 h/Tau/g dry weigth/40 ml
  Normalized dark respiration activity (fwt): 72.6 h/Tau/g fresh weigth/40 ml
Cotton [2]; [8]
  Normalized dark respiration activity (dwt): 12.7 h/Tau/g dry weigth/40 ml
  Normalized dark respiration activity (fwt): 67.9 h/Tau/g fresh weigth/40 ml
Rice; [7]
  Normalized dark respiration activity (dwt): 8.2 h/Tau/g dry weigth/40 ml
  Normalized dark respiration activity (fwt): 29.2 h/Tau/g fresh weigth/40 ml
Rice; [8]
  Normalized dark respiration activity (dwt): 7.6 h/Tau/g dry weigth/40 ml
  Normalized dark respiration activity (fwt): 29.4 h/Tau/g fresh weigth/40 ml
Corn; [7]
  Normalized dark respiration activity (dwt): 14.7 h/Tau/g dry weigth/40 ml
  Normalized dark respiration activity (fwt): 78.3 h/Tau/g fresh weigth/40 ml
Corn; [8]
  Normalized dark respiration activity (dwt): 14.5 h/Tau/g dry weigth/40 ml
  Normalized dark respiration activity (fwt): 72.1 h/Tau/g fresh weigth/40 ml
Sugarcane plants; Time of Day 5.3
  relative AOX, integration of the parabolic function yields: 0.0%
Sugarcane plants; Time of Day 5.6
  absolute AOX, integration of the parabolic function yields: 0.0
Sugarcane plants; Time of Day 23.0
  absolute AOX, integration of the parabolic function yields: 51.9
Sugarcane plants; Time of Day 24.3
  relative AOX, integration of the parabolic function yields: 436%
Sugarcane plants; 70 days 0 ppbv, 33 days at 60 ppbv, returned to 0 ppbv, after 5 days
  AOX at 10:00 am (% of TDR): approximately 5 % of TDR
Sugarcane plants; 70 days 0 ppbv, 33 days at 60 ppbv, then returned to 0 ppbv, first
  AOX at about 10:00 am (% of TDR): approximately 35 % of TDR
Sugarcane plants; 70 days at 60 ppbv, thereafter 33 days in 0 ppbv
  AOX level after shift to 0 ppbv: maintained their 60 ppb AOX levels; also recorded: maintain their high AOX; also recorded: consistently high AOX levels
Sugarcane plants; absolute AOX
  AOX 60 ppbv/AOX 0 ppbv (dTau/dt/dTau/dt): 169%
Sugarcane plants; relative AOX
  AOX 60 ppbv/AOX 0 ppbv (%/%): 154%
